Data reported in US20160058743A1, “METHODS FOR TREATING SENSORIMOTOR IMPAIRMENTS ASSOCIATED WITH CERTAIN TYPES OF STROKE USING AMINOPYRIDINES” (ACORDA THERAPEUTICS, INC., priority 2013, published 2016).
Values joined by “and” are separate entries in the source; they are usually repeats but may differ in a detail not shown here. Identical values can stand only once.

Key:
[1] = test system: rats with middle cerebral artery occlusion (MCAO); test: Cylinder test (overall asymmetry, total movement) after MCAO; format: in vivo, Sprague Dawley rats; parameters: Cylinder Test (Total Movement) / Cylinder Test (Total Movement), Mean: unit not given here; settings: for Cylinder Test (Total Movement) / Cylinder Test Score (Overall Asymmetry (%)): individual animals and group Mean; for Cylinder Test (Total Movement), Mean: N 15
Text: In particular, the MCAO model in Sprague Dawley rats that was utilized in the experiments presented below mimics the conditions in human ischemic stroke. In this model, focal cerebral infarcts were made by permanent occlusion of the proximal right middle cerebral artery (MCA) using a modification of the method of Tamura et al. (No To […] 1986; 38:747-51). Briefly, the temporalis muscle was bisected and reflected through an incision made midway between the eye and the ear canal. The proximal MCA was exposed through a subtemporal craniectomy without removing the zygomatic arch and without transecting the facial nerve. […] In this experiment, Sprague Dawley rats were anesthetized, subjected to a surgery resulting in middle cerebral artery occlusion (MCAO), treated with and without 4-aminopyridine and behavioral assessments were performed as described below. Treatment was initiated at 4 weeks after stroke. Dosing and Treatment: Rats were treated in accordance with the dosing schedule shown in Tables 2A, 2B, 3 and FIG. 2, with each Phase being a two week period of time. A solution of 4-AP was used in this experiment. […] Vehicle control treatment was WFI delivered at 2 mL/kg by gastric gavage. […] Starting on day 30 after MCAO (Day 30, start of phase 1), the animals received gavage dosing of solutions (2 mL/kg) approximately 12 hours apart, for a total of five doses. The same schedule was repeated with different treatment on Day 44 and Day 58 for phase 2 and 3 of the study, respectively. Animals were not treated during the 10 days between phases (washout period). Treatment groups: Dosing was started 4 weeks after MCAO surgery. During these 4 weeks, weekly behavioral assessments, as defined below, were performed. […] Animals were given the first dose and behavioral assessments were performed starting 60 minutes after dosing. Animals then received the second dose that day at the appropriate time and b.i.d (preferably every 12 hours) thereafter for 2 more days (3 total days of dosing, 5 total doses). One hour after the 5th dose, animals were subjected to behavioral assessments as defined below. Following the final behavioral assessment, drug was withdrawn for 10 or 11 days, behavior was re-assessed, and then animals were re-challenged with a cross-over treatment (Phase 2 of Table 2B) as described in Tables 2A, 2B and 3, followed by the same behavioral testing and dosing regimen. This cross-over was repeated one more time as well (Phase 3 of Table 2B) (see FIG. 2). Cylinder Test: Evaluation was performed at Day -1 (pre-operation), Day 7, Day 21, Day 30, Day 32, Day 44, Day 46, Day 58, Day 60. This test assessed limb use asymmetry. Rats were placed in a transparent cylinder (20 cm in diameter and 30 cm in height) for 3-6 minutes. A mirror was placed behind the cylinder to determine forelimb movements when animal was turned away from the camera. […] Simultaneous use of both left and right forelimbs while contacting the wall during a full rear was also scored. A total number of 20 forelimb placings were counted during a trial. Data was expressed in terms of percent use of the non-impaired and or impaired forelimb relative to the total number of limb use observations for wall movements.

[2] = test system: rats with middle cerebral artery occlusion (MCAO); test: Forelimb placing test after MCAO; format: in vivo, Sprague Dawley rats

**Q.** Which “Effect on body symmetry and coordination (cylinder test)” value ([1]; Example 2, 0.63 or 2 mg/kg b.i.d. p.o., started 4 weeks post MCAO, dose-dependent, reversible) does the source give for Nc1ccncc1 [4-AP, 4-aminopyridine] here?
**A.** The value was “effective to improve body symmetry and coordination”.

**Q.** What about the “Cylinder Test (Total Movement)” value ([1]; Group 1, D 7) of the same compound?
**A.** The value was 131.00 and 130.00 and 77.00 and 57.00 (2×) and 139.00 and 35.00 and 15.00 and 32.00 and 14.00 and 63.00.

**Q.** And the “Cylinder Test (Total Movement)” value ([1]; Group 1, D 7, mean)?
**A.** Its value is 58.07.

**Q.** What about the “Cylinder Test (Total Movement)” value ([1]; Group 1, D 21) of the same compound?
**A.** Its value is 51.00 and 98.00 and 31.00 and 67.00 and 172.00 and 28.00 and 70.00 and 8.00 and 52.00 and 22.00 and 13.00.

**Q.** What about the “Cylinder Test (Total Movement)” value ([1]; Group 1, D 21, mean) of the same compound?
**A.** Its value is 45.67.

**Q.** And the “Cylinder Test (Total Movement)” value ([1]; Group 1, D 30)?
**A.** Its value is 0.00 (3×) and 75.00 and 2.00 and 10.00 (2×) and 6.00 and 13.00 and 12.00 and 4.00.

**Q.** And the “Cylinder Test (Total Movement)” value ([1]; Group 1, D 32)?
**A.** Its value is 11.00 and 54.00 and 22.00 and 39.00 and 10.00 and 8.00 and 14.00 and 15.00 and 0.00 (2×) and 38.00.

**Q.** What about the “Cylinder Test (Total Movement)” value ([1]; Group 1, D 44) of the same compound?
**A.** The value was 28.00 and 93.00 and 48.00 and 57.00 and 47.00 and 9.00 and 123.00 and 11.00 and 5.00 and 66.00.

**Q.** What about the “Cylinder Test (Total Movement)” value ([1]; Group 1, D 46) of the same compound?
**A.** Its value is 11.00 and 47.00 and 43.00 and 48.00 and 46.00 and 12.00 and 63.00 and 4.00 and 0.00 and 13.00.

**Q.** What about the “Cylinder Test (Total Movement)” value ([1]; Group 1, D 58) of the same compound?
**A.** The value was 14.00 and 137.00 and 18.00 and 81.00 and 53.00 and 16.00 and 74.00 and 0.00 and 11.00 and 26.00.

**Q.** And the “Cylinder Test (Total Movement)” value ([1]; Group 1, D 58, mean)?
**A.** Its value is 36.47.

**Q.** What about the “Cylinder Test (Total Movement)” value ([1]; Group 1, D 60) of the same compound?
**A.** Its value is 14.00 and 81.00 and 33.00 and 44.00 and 28.00 and 9.00 and 85.00 and 0.00 and 3.00 and 6.00.

**Q.** What about the “Cylinder Test (Total Movement)” value ([1]; Group 1, D 60, mean) of the same compound?
**A.** The value was 27.40.

**Q.** What about the “Cylinder Test (Total Movement)” value ([1]; Group 1, D −1) of the same compound?
**A.** The value was 64.00 and 152.00 and 81.00 and 52.00 and 100.00 and 53.00 and 47.00 and 14.00 and 31.00 and 23.00 and 49.00.

**Q.** And the “Cylinder Test (Total Movement)” value ([1]; Group 1, D −1, mean)?
**A.** Its value is 63.07.

**Q.** What about the “Cylinder Test Score (Overall Asymmetry (%))” value ([1]; Group 2, D 7) of the same compound?
**A.** Its value is 55.47% and 28.85% and 25.00% and 51.56% and 50.00% and 58.33% and 42.36% and 28.57% and 43.14% and 24.32% and 14.29%.

**Q.** And the “Cylinder Test Score (Overall Asymmetry (%))” value ([1]; Group 2, D 7, mean)?
**A.** The value was 38.14%.

**Q.** What about the “Cylinder Test Score (Overall Asymmetry (%))” value ([1]; Group 2, D 21) of the same compound?
**A.** Its value is 56.25% and −23.17% and 66.67% (2×) and 49.06% and 46.43% and 25.32% and 47.83% and 22.22% and 17.86% and −25.00%.

**Q.** And the “Cylinder Test Score (Overall Asymmetry (%))” value ([1]; Group 2, D 21, mean)?
**A.** Its value is 27.16%.

**Q.** What about the “Cylinder Test Score (Overall Asymmetry (%))” value ([1]; Group 2, D 30) of the same compound?
**A.** Its value is 51.72% and 0.00% and 4.17% and 56.64% and 27.59% and 75.00% and 20.99% and 27.50% and 16.67% and 20.00%.

**Q.** What about the “Cylinder Test Score (Overall Asymmetry (%))” value ([1]; Group 2, D 32) of the same compound?
**A.** Its value is 63.29% and 18.18% and 33.33% and 54.78% and 22.73% and 62.50% and 16.00% and 20.00% and 3.85% and 27.66% and −33.33%.

**Q.** What about the “Cylinder Test Score (Overall Asymmetry (%))” value ([1]; Group 2, D 44) of the same compound?
**A.** Its value is 58.33% and 14.04% and 38.96% and 52.53% and 11.54% and 54.93% and 7.14% and 18.18% and −27.08% and 17.65% and −20.00%.

**Q.** And the “Cylinder Test Score (Overall Asymmetry (%))” value ([1]; Group 2, D 44, mean)?
**A.** The value was 14.61%.

**Q.** What about the “Cylinder Test Score (Overall Asymmetry (%))” value ([1]; Group 2, D 46) of the same compound?
**A.** The value was 28.57% and 34.85% and 31.40% and 19.05% and 29.33% and 40.35% and 46.15% and 16.95% and 42.86% and 2.86%.

**Q.** And the “Cylinder Test Score (Overall Asymmetry (%))” value ([1]; Group 2, D 46, mean)?
**A.** The value was 24.91%.

**Q.** And the “Cylinder Test Score (Overall Asymmetry (%))” value ([1]; Group 2, D 58)?
**A.** Its value is 29.17% and 50.00% and 66.67% and 54.76% and 30.00% and 88.00% and −7.69% and −16.67% and 62.50%.

**Q.** What about the “Cylinder Test Score (Overall Asymmetry (%))” value ([1]; Group 2, D 60) of the same compound?
**A.** The value was 64.00% and 20.00% and 14.29% and 62.50% and 10.00% and 76.47% and 13.95% and 0.00% (2×) and −100.00%.

**Q.** And the “Cylinder Test Score (Overall Asymmetry (%))” value ([1]; Group 2, D −1)?
**A.** Its value is −15.58% and −1.96% and −24.39% and 2.38% and 0.00% and 1.65% and −2.20% and −7.58% and 21.05% and 8.45% and −2.70% and −5.66%.

**Q.** And the “Cylinder Test Score (Overall Asymmetry (%))” value ([1]; Group 2, D −1, mean)?
**A.** The value was −4.05%.

**Q.** And the “Cylinder Test (Total Movement), Mean” value ([1]; Group 3, D 44 after MCAO)?
**A.** Its value is 19.13.

**Q.** And the “Cylinder Test (Total Movement), Mean” value ([1]; Group 3, D 46 after MCAO)?
**A.** Its value is 18.73.

**Q.** And the “Cylinder Test (Total Movement), Mean” value ([1]; Group 3, D 58 after MCAO)?
**A.** Its value is 32.33.

**Q.** What about the “Forelimb placing compared to vehicle” value ([2]; Example 17, 0.5 mg/kg b.i.d. p.o., Day 59 post-MCAO, p<0.001) of the same compound?
**A.** Its value is “significantly improved in forelimb placing”.

**Q.** And the “Forelimb test compared to vehicle” value ([2]; Example 17, 1 mg/kg b.i.d. p.o., Day 62 post-MCAO, p<0.001)?
**A.** The value was “measureable improvement”.

**Q.** What about the “Forelimb function compared to vehicle” value ([2]; Example 17, 2 mg/kg b.i.d. p.o., Day 65 post-MCAO, p<0.0001) of the same compound?
**A.** The value was “significant improvements”.
